In patent US11135203B2, “Forazolines, compositions thereof and uses thereof” (Wisconsin Alumni Research Foundation, priority 2013, dated 2021):

Legend:
[1] = Synergy studies with amphotericin B (AMB); type: cell-based; conditions: combination with amphotericin B
[2] = system: Saccharomyces cerevisiae deletion mutant strains; assay: Chemical genomic profiling against deletion mutant yeast strains; type: cell-based; conditions: for sensitivity of mutant LEM3-Δ: chemical genomic profile of known antifungal agents
Description: This method has been used to explore the mechanism of action for bioactive compounds, including natural products. Forazoline A was screened against over four thousand deletion mutant yeast strains, genomic DNA was extracted, and mutant-specific DNA barcodes were amplified and sequenced by Illumina sequencing. Forazoline A sensitive and resistant mutants were determined by quantification of DNA-barcodes, which provided a chemical genomic profile used to evaluate the mechanism of action.

Water solubility = type: physicochemical
Candida albicans K1 = assay: Neutropenic murine disseminated candidiasis model, kidney organism burden; type: in vivo; conditions: Candida albicans K1, single dose 2.5, 0.78 and 0.125 mg/kg, after 8 hours
From the text: (§1) Animals. Six-week-old ICR Swiss specific-pathogen-free female mice weighing 23 to 27 g were used for all studies. Animals were maintained in accordance with the American Association for Accreditation of Laboratory Care criteria. Animal studies were approved by the University of Wisconsin Animal Care Committee.
Infection model. A neutropenic, murine, disseminated candidiasis model was used for the treatment studies. Mice were rendered neutropenic (polymorphonuclear cell counts of <100 mm^3) by injecting cyclophosphamide subcutaneously 4 days before infection (150 mg/kg of body weight) and 1 day before infection (100 mg/kg). Candida albicans K1 was subcultured on Sabouraud dextrose agar (SDA) 24 h prior to infection. The inocula were prepared by placing three to five colonies into 5 ml of sterile 0.15 M NaCl warmed to 35° C. The final inoculum was adjusted to 0.6 transmittance at 530 nm. Fungal counts of the inocula determined by viable counts on SDA were 5.63±0.38 log10 CFU/mL (mean±standard deviation).
Disseminated infection with C. albicans organisms was produced by injection of 0.1 ml of the inoculum via the lateral tail vein 2 h prior to the start of antifungal therapy. At the end of the study period (8 h), animals were sacrificed by CO2 asphyxiation. […] The results are expressed as the mean and standard deviation of the log10 CFU/kidney from three mice. […]

[3] = Toxic effects observed in treated mice of the candidiasis model; type: in vivo; conditions: neutropenic mice, 2.5, 0.78 and 0.125 mg/kg, 8 hours
Description: as §1
Drug Treatment. […] The intravenous dose was given by the lateral tail vein via a 200 μL infusion. The intraperitoneal dose was administered in 500 μL volume. Control mice were treated with saline. Groups of mice were sacrificed at the start of therapy and 8 hours after therapy for determination of organism burden in the kidney as described above.

CO[C@H]1[S+]([O-])C2=CC(=O)[C@](C)(O[C@H]3CC[C@H](N(C)C)[C@@H](C)O3)[C@@H](O)CCC(C)=C[C@@H]3[C@@H](C)[C@](C)(Cl)[C@@H](C[C@H]3O[C@H]3CC[C@H](N(C)C)[C@@H](C)O3)OC(=O)[C@@H]3CSC(=N3)[C@]1(C)N2 (some centres unmarked) [Forazoline A]
interaction when tested with AMB [1]: synergy
gene enrichment of top sensitive mutant strains (P<0.0001) ([2]; GO: 0045332, P=0.0009, driven by LEM3 and FPK1 deletion mutants): significantly enriched for genes involved in phospholipid translocation
water solubility (Water solubility): about 5 mg/mL
reduction in organism burden compared to control mice (Candida albicans K1): 1.5+/−0.12 log10 cfu/kidney
toxic effects from the compound [3]: No toxic effects

CC[C@H](C)C[C@H](C)CCCCCCCCC(=O)N[C@H]1C[C@@H](O)[C@@H](NCCN)NC(=O)[C@@H]2[C@@H](O)CCN2C(=O)[C@H]([C@H](O)CCN)NC(=O)[C@H]([C@H](O)[C@@H](O)c2ccc(O)cc2)NC(=O)[C@@H]2C[C@@H](O)CN2C(=O)[C@H]([C@@H](C)O)NC1=O [caspofungin]
sensitivity of mutant LEM3-Δ [2]: not among the most sensitive strains

OC(Cn1cncn1)(Cn1cncn1)c1ccc(F)cc1F [fluconazole]
sensitivity of mutant LEM3-Δ [2]: not among the most sensitive strains

C[C@@H]1[C@H](O)[C@@H](C)/C=C/C=C/C=C/C=C/C=C/C=C/C=C/[C@H](O[C@@H]2O[C@H](C)[C@@H](O)[C@H](N)[C@@H]2O)C[C@@H]2O[C@](O)(C[C@@H](O)C[C@@H](O)[C@H](O)CC[C@@H](O)C[C@@H](O)CC(=O)O[C@H]1C)C[C@H](O)[C@H]2C(=O)O [amphotericin, amphotericin B]
sensitivity of mutant LEM3-Δ [2]: not among the most sensitive strains
